Experimental data: patent US20250019373A1, “ARYL OR HETEROARYL DERIVATIVE, AND PHARMACEUTICAL COMPOSITION COMPRISING SAME AS ACTIVE INGREDIENT FOR PREVENTION OR TREATMENT OF KINASE-RELATED DISEASES” (VORONOI INC., priority 2021, published 2025)

test system: HT-29 cells; test: Cell necrosis inhibitory activity under necroptosis-inducing conditions (TNF-α, Z-VAD-FMK, LCL161) in HT-29 cells, Cell Titer-Glo; format: cell-based; conditions: Homo sapiens, 100 ng/mL TNF-α + 25 μM Z-VAD-FMK + Smac mimetic LCL161, 24 hours, cell viability
Description: To evaluate the cell necrosis inhibitory activity of the compound according to the present invention, an experiment was conducted as follows.
To evaluate the efficacy of inhibiting cell necrosis under TNF-α-mediated cell death-inducing conditions, a HT-29 cell line (Korean Cell Line Bank Accession No. #30038) was cultured in RPMI-1640 (HyClone #SH3027.01) medium containing 10% fetal bovine serum (FBS) and 1% penicillin/streptomycin to analyze cell viability. More specifically, for testing, the cell line was seeded in a 96-well flat bottom plate (Corning #3903) at a concentration of 10,000 cells/well and incubated at 37° C. under a 5% CO2 condition for 24 hours. Each well was treated with 100 ng/mL TNF-α, 25 μM pan-caspase inhibitor (Z-VAD-FMK, Selleckchem #S8102), and 10 µM Smac mimetic LCL161 (Selleckchem #S7009) and allowed to react for 10 minutes. The compounds of Examples were treated at 11 concentrations (the highest concentration being 0.1 μM or 1 μM) with a 3-fold concentration gradient, and as a control, dimethyl sulfoxide (DMSO) was treated at a concentration of 0.05% (v/v), which is the same as those when the compounds were treated. The treated cells were incubated for 24 hours. To confirm the degree of cell viability, 100 μL of Cell Titer-Glo (Promega #G7573) was added to the medium of the cultured cells and cultured for additional 10 minutes, and then luminescence was measured using a microplate reader. Based on the […] of control cells that were not treated with the compound, the degree of cell necrosis inhibitory activity was calculated according to the treatment concentration of each compound. Here, the concentration at which the cell necrosis inhibitory activity was 50% was determined as an EC50 (nM) value and calculated using Prism (ver. 8.4.3 #GraphPad) software.

| SMILES | EC50 |
| --- | --- |
| COc1ncc(-c2ccc3nc(N)nn3c2)cc1NC(=O)N1OCC[C@H]1c1cccc(F)c1 [Example 58, (S)-N-(5-(2-amino-[1,2,4]triazolo[1,5-a]pyridin-6-yl)-2-methoxypyridin-3-yl)-3-(3-fluorophenyl)isoxazolidine-2-carboxamide] | 3.9 nM |
| Cc1ncc(-c2ccc3nc(NC(=O)C4CC4)nn3c2)cc1NC(=O)N1OCC[C@H]1c1ccccc1 [Example 36, (S)-N-(5-(2-(cyclopropanecarboxamido)-[1,2,4]triazolo[1,5-a]pyridin-6-yl)-2-methylpyridin-3-yl)-3-phenylisoxazolidine-2-carboxamide] | 0.6 nM |
| Cc1ccc(-c2cc3scnc3cn2)cc1NC(=O)N1OCC[C@H]1c1ccccc1 [Example 130, (S)-N-(2-methyl-5-(thiazolo[4,5-c]pyridin-6-yl)phenyl)-3-phenylisoxazolidine-2-carboxamide] | 1.4 nM |
| Cc1ncc(-c2ccc3nc(N)nn3c2)cc1NC(=O)N1OCC[C@H]1c1cccc(C(F)(F)F)c1 [Example 41, (S)-N-(5-(2-amino-[1,2,4]triazolo[1,5-a]pyridin-6-yl)-2-methylpyridin-3-yl)-3-(3-(trifluoromethyl)phenyl)isoxazolidine-2-carboxamide] | 1 nM |
| Cc1ccc(-c2ccc3ncc(C#N)n3c2)cc1NC(=O)N1OCC[C@H]1c1ccccc1 [Example 114, (S)-N-(5-(3-cyanoimidazo[1,2-a]pyridin-6-yl)-2-methylphenyl)-3-phenylisoxazolidine-2-carboxamide] | 1.9 nM |
| Nc1nc2cc(-c3ccc(F)c(NC(=O)N4OCC[C@H]4c4ccccc4)c3F)ccn2n1 [Example 134, (S)-N-(3-(2-amino-[1,2,4]triazolo[1,5-a]pyridin-7-yl)-2,6-difluorophenyl)-3-phenylisoxazolidine-2-carboxamide] | 13 nM |
| Cc1ccc(-c2ccc3nc(NC(=O)C4CC4)sc3c2)cc1NC(=O)N1OCC[C@H]1c1ccc(C#N)cc1 [Example 93, (S)-3-(4-cyanophenyl)-N-(5-(2-(cyclopropanecarboxamido)benzo[d]thiazol-6-yl)-2-methylphenyl)isoxazolidine-2-carboxamide] | 0.2 nM |
| Cc1ccc(-c2ccn3nc(N)nc3c2)cc1NC(=O)N1OCC[C@H]1c1ccccc1 [Example 61, (S)-N-(5-(2-amino-[1,2,4]triazolo[1,5-a]pyridin-7-yl)-2-methylphenyl)-3-phenylisoxazolidine-2-carboxamide] | 0.2 nM |
| CNC(=O)c1n[nH]c2cc(-c3ccc(OC)c(NC(=O)N4OCC[C@H]4c4ccccc4)c3)ccc12 [Example 24, (S)-N-(2-methoxy-5-(3-(methylcarbamoyl)-1H-indazol-6-yl)phenyl)-3-phenylisoxazolidine-2-carboxamide] | 0.4 nM |
| Cc1ccc(-c2ccc3nnc(C(F)(F)F)n3n2)cc1NC(=O)N1OCC[C@H]1c1ccccc1 [Example 108, (S)-N-(2-methyl-5-(3-(trifluoromethyl)-[1,2,4]triazolo[4,3-b]pyridazin-6-yl)phenyl)-3-phenylisoxazolidine-2-carboxamide] | 29.8 nM |
| CNC(=O)c1n[nH]c2cc(-c3cc(NC(=O)N4OCC[C@H]4c4ccccc4)cnc3OC)ccc12 [Example 23, (S)-N-(6-methoxy-5-(3-(methylcarbamoyl)-1H-indazol-6-yl)pyridin-3-y1)-3-phenylisoxazolidine-2-carboxamide] | 8.1 nM |
| Cc1ncc(-c2ccc3nc(NC(=O)C4CC4)cn3n2)cc1NC(=O)N1OCC[C@H]1c1ccccc1 [Example 10, (S)-N-(5-(2-(cyclopropanecarboxamido)imidazo[1,2-b]pyridazin-6-yl)-2-methylpyridin-3-yl)-3-phenylisoxazolidine-2-carboxamide] | 0.3 nM |
| Cc1ncc(-c2ccc3nc(N)nn3c2)cc1NC(=O)N1OCC[C@H]1c1ccccc1 [Example 33, (S)-N-(5-(2-amino-[1,2,4]triazolo[1,5-a]pyridin-6-yl)-2-methylpyridin-3-yl)-3-phenylisoxazolidine-2-carboxamide] | 1.2 nM |
| Cc1ncc(-c2ccc3nc(N)nn3c2)cc1NC(=O)N1OCC[C@H]1c1cccc(Cl)c1 [Example 39, (S)-N-(5-(2-amino-[1,2,4]triazolo[1,5-a]pyridin-6-yl)-2-methylpyridin-3-yl)-3-(3-chlorophenyl)isoxazolidine-2-carboxamide] | 0.9 nM |
| C#Cc1cnc2ccc(-c3ccc(C)c(NC(=O)N4OCC[C@H]4c4ccccc4)c3)cn12 [Example 116, (S)-N-(5-(3-ethynylimidazo[1,2-a]pyridin-6-yl)-2-methylphenyl)-3-phenylisoxazolidine-2-carboxamide] | 1 nM |
| Cc1ccc(-c2ccc3nc(N)oc3c2)cc1NC(=O)N1OCC[C@H]1c1ccccc1 [Example 109, (S)-N-(5-(2-aminobenzo[d]oxazol-6-yl)-2-methylphenyl)-3-phenylisoxazolidine-2-carboxamide] | 1 nM |
| Cc1ncc(-c2ccc3nc(N)nn3c2)cc1NC(=O)N1OCC[C@H]1c1ccc(Cl)c(C(F)(F)F)c1 [Example 44, (S)-N-(5-(2-amino-[1,2,4]triazolo[1,5-a]pyridin-6-yl)-2-methylpyridin-3-yl)-3-(4-chloro-3-(trifluoromethyl)phenyl)isoxazolidine-2-carboxamide] | 4.1 nM |
| COc1ncc(-c2ccc3nc(N)nn3c2)cc1NC(=O)N1OCC[C@H]1c1cc(F)cc(F)c1 [Example 57, (S)-N-(5-(2-amino-[1,2,4]triazolo[1,5-a]pyridin-6-yl)-2-methoxypyridin-3-yl)-3-(3,5-difluorophenyl)isoxazolidine-2-carboxamide] | 4.4 nM |
| Nc1nc2ccc(-c3ccc(F)c(NC(=O)N4OCC[C@H]4c4ccccc4)c3)cn2n1 [Example 96, (S)-N-(5-(2-amino-[1,2,4]triazolo[1,5-a]pyridin-6-yl)-2-fluorophenyl)-3-phenylisoxazolidine-2-carboxamide] | 1.9 nM |
| CNC(=O)c1n[nH]c2cc(-c3cnc(C)c(NC(=O)N4OCC[C@H]4c4ccccc4)c3)ccc12 [Example 21, (S)-N-(2-methyl-5-(3-(methylcarbamoyl)-1H-indazol-6-yl)pyridin-3-yl)-3-phenylisoxazolidine-2-carboxamide] | 0.4 nM |
| Cc1ccc(-c2ccc3nccn3n2)cc1NC(=O)N1OCC[C@H]1c1ccccc1 [Example 112, (S)-N-(5-(imidazo[1,2-b]pyridazin-6-yl)-2-methylphenyl)-3-phenylisoxazolidine-2-carboxamide] | 3.3 nM |
| C#Cc1cnc2ccc(-c3ccc(C)c(NC(=O)N4OCC[C@H]4c4ccccc4)c3)nn12 [Example 125, (S)-N-(5-(3-ethynylimidazo[1,2-b]pyridazin-6-yl)-2-methylphenyl)-3-phenylisoxazolidine-2-carboxamide] | 1.4 nM |
| Cc1ccc(-c2ccc3nc(N)nn3c2)cc1NC(=O)N1OCC[C@H]1c1ccc(Cl)cc1 [Example 67, (S)-N-(5-(2-amino-[1,2,4]triazolo[1,5-a]pyridin-6-yl)-2-methylphenyl)-3-(4-chlorophenyl)isoxazolidine-2-carboxamide] | 0.4 nM |
| COc1ccc(-c2ccc3nc(N)nn3c2)cc1NC(=O)N1OCC[C@H]1c1ccccc1 [Example 31, (S)-N-(5-(2-amino-[1,2,4]triazolo[1,5-a]pyridin-6-yl)-2-methoxyphenyl)-3-phenylisoxazolidine-2-carboxamide] | 4.6 nM |
| Nc1nc2ccc(-c3ccc(Cl)c(NC(=O)N4OCC[C@H]4c4ccccc4)c3F)cn2n1 [Example 105, (S)-N-(3-(2-amino-[1,2,4]triazolo[1,5-a]pyridin-6-yl)-6-chloro-2-fluorophenyl)-3-phenylisoxazolidine-2-carboxamide] | 43.8 nM |
| COc1ccc(-c2ccc3nc(NC(C)=O)sc3c2)cc1NC(=O)N1OCC[C@H]1c1ccccc1 [Example 27, (S)-N-(5-(2-acetamidobenzo[d]thiazol-6-yl)-2-methoxyphenyl)-3-phenylisoxazolidine-2-carboxamide] | 1 nM |
| COc1ncc(-c2ccc3nc(NC(=O)CO)cn3n2)cc1NC(=O)N1OCC[C@H]1c1ccccc1 [Example 5, (S)-N-(5-(2-(2-hydroxyacetamido)imidazo[1,2-b]pyridazin-6-yl)-2-methoxypyridin-3-yl)-3-phenylisoxazolidine-2-carboxamide] | 2.9 nM |
| CC(=O)Nc1cn2nc(-c3cnc(C)c(NC(=O)N4OCC[C@H]4c4ccccc4)c3)ccc2n1 [Example 11, (S)-N-(5-(2-acetamidoimidazo[1,2-b]pyridazin-6-yl)-2-methylpyridin-3-yl)-3-phenylisoxazolidine-2-carboxamide] | 0.9 nM |
| Cc1ccc(-c2ccn3nc(N)nc3c2)cc1NC(=O)N1OCC[C@H]1c1ccc(Cl)cc1 [Example 65, (S)-N-(5-(2-amino-[1,2,4]triazolo[1,5-a]pyridin-7-yl)-2-methylphenyl)-3-(4-chlorophenyl)isoxazolidine-2-carboxamide] | 0.2 nM |
| Cc1ccc(-c2ccc3nc(N)nn3c2)cc1NC(=O)N1OCC[C@H]1c1ccc(F)cc1 [Example 66, (S)-N-(5-(2-amino-[1,2,4]triazolo[1,5-a]pyridin-6-yl)-2-methylphenyl)-3-(4-fluorophenyl)isoxazolidine-2-carboxamide] | 0.4 nM |
